# What was measured:
# [1] = tested on: NCIH460, HCT116, MDAMB231/U251; assay: Anti-cancer screen, mean GI50 over the cell lines; assay type: cell-based; conditions: in µM
# Method in brief: (§1)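 HCT116, NCIH460 and U251 cells (5000/well, DMEM + 10% FBS) seeded 24 h, then treated 48 h in triplicate at 0.01, 0.1, 1, 10, 100 μM; time-zero plate kept. MTT 3 h, formazan in DMSO read at 570 nm; GI50, TGI, LC50 derived.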
# [2] = tested on: MDAMB231/U251; assay: Anti-cancer screen (MTT), MDAMB231/U251; assay type: cell-based; set-up: MDAMB231/U251 TGI: unit: uM; conditions: MDAMB231/U251 cells, 48 hours; for GI50: concentration to decrease % growth by 50%; for IC100: read-out: MDAMB231/U251 TGI; for LC50: concentration to decrease % growth by 150%
# Method in brief: as §1
# [3] = tested on: HCT 116 cells; assay: Anti-cancer screen (MTT), HCT116; assay type: cell-based; set-up: HCT116 TGI: unit: uM; conditions: for GI50: concentration to decrease % growth by 50%; for IC100: read-out: HCT116 TGI; for LC50: concentration to decrease % growth by 150%
# Method in brief: as §1
# [4] = tested on: HDAC (Mouse Liver Extract); assay: Histone Deacetylase (HDAC) Inhibition Assay using Boc-Lys (Ac)-AMC Substrate; assay type: biochemical; conditions: mouse liver enzyme, NA = No Activity; for HDAC Inhibition 1 μM / HDAC Inhibition 10 μM: in % (unit assumed)
# Method in brief: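 Mouse liver extract was the HDAC source. It was preincubated with inhibitor for 5 min at 30° C, then incubated with Boc-Lys(Ac)-AMC substrate for 30 min at 30° C. Trypsin stop solution was added for a 20–30 min development step, and released AMC was read by fluorescence (ex 360/365, em 440/460 nm) with blank subtraction.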
# [5] = tested on: NCIH 460 cells; assay: Anti-cancer screen (MTT), NCIH460; assay type: cell-based; set-up: NCIH460 TGI: unit: uM; conditions: for GI50: concentration to decrease % growth by 50%; for IC100: read-out: NCIH460 TGI; for LC50: concentration to decrease % growth by 150%
# Method in brief: as §1
# [6] = concentration to decrease % growth by 100%
# [7] = Homo sapiens, HCT-116, HCT116 cells, 48 hours, MTT
# [8] = Homo sapiens, HCT-116, HCT116 cells, 48 hours, MTT, concentration to decrease % growth by 100%
# [9] = Homo sapiens, NCI-H460, NCIH460 cells, 48 hours, MTT
# [10] = Homo sapiens, NCI-H460, NCIH460 cells, 48 hours, MTT, concentration to decrease % growth by 100%
SMILES,Mean GI50 [1],GI50 [2],"IC100 [2, 6]",LC50 [2],"GI50 [3, 7]","IC100 [3, 8]","LC50 [3, 7]",HDAC Inhibition 1 μM [4],HDAC Inhibition 10 μM [4],"GI50 [5, 9]","IC100 [5, 10]","LC50 [5, 9]","MDAMB231/U251 TGI [2, 6]",CC50 [3],"GI50 ([3]; HCT116 cells, 48 hours, MTT)","HCT116 TGI ([3]; HCT116 cells, 48 hours, MTT, concentration to decrease % growth by 100%)",CC50 [5],"GI50 ([5]; NCIH460 cells, 48 hours, MTT)","NCIH460 TGI ([5]; NCIH460 cells, 48 hours, MTT, concentration to decrease % growth by 100%)",IC50 [4]
"O=C(CCCCCCC(=O)N1CCN(CC(=O)Nc2ccccc2)CC1)NO [Example 31, 8-{4-[2-(Phenyl-2-ylamino)-2-oxoethyl]piperazin-1-yl}-N-hydroxy-8-oxo octanamide]",40.20,0.6 µM,94 µM,> 100 µM,60 µM,> 100 µM,> 100 µM,45.20,84.96,60 µM,> 100 µM,> 100 µM,–,–,–,–,–,–,–,–
"CCOc1ccc2nc(NC(=O)CN3CCN(C(=O)CCCCCCC(=O)NO)CC3)sc2c1 [Example 32, 8-{4-[2-(6-Ethoxy-1,3-benzothiazol-2-ylamino)-2-oxoethyl]piperazin-1-yl}-N-hydroxy-8-oxo octanamide]",15.50,1.5 µM,–,98 µM,–,–,–,60.30,98.91,–,–,–,9.5,95 µM,7 µM,42,> 100 µM,38 µM,72,–
"Cc1csc(NC(=O)CN2CCN(C(=O)CCCCCCC(=O)NO)CC2)n1 [Example 33, 8-{4-[2-(4-Methyl-1,3-thiazol-2-ylamino)-2-oxoethyl]piperazin-1-yl}-N-hydroxy-8-oxo octanamide]",51.67,10 µM,98 µM,> 100 µM,55 µM,> 100 µM,> 100 µM,50.09,92.38,90 µM,> 100 µM,> 100 µM,–,–,–,–,–,–,–,–
"O=C(CCCCCCC(=O)N1CCN(CC(=O)Nc2nccs2)CC1)NO [Example 34, 8-{4-[2-(1,3-Thiazol-2-ylamino)-2-oxoethyl]piperazin-1-yl}-N-hydroxy-8-oxo octanamide]",28,6 µM,74 µM,> 100 µM,50 µM,> 100 µM,> 100 µM,45.65,89.86,> 100 µM,> 100 µM,> 100 µM,–,–,–,–,–,–,–,–
"Cc1ccc2nc(NC(=O)CN3CCN(C(=O)CCCCCCC(=O)NO)CC3)sc2c1 [Example 35, 8-{4-[2-(6-Methyl-1,3-benzothiazol-2-ylamino)-2-oxoethyl]piperazin-1-yl}-N-hydroxy-8-oxo octanamide]",23,5 µM,45 µM,> 100 µM,8 µM,40 µM,92 µM,68.3,96.93,56 µM,100 µM,> 100 µM,–,–,–,–,–,–,–,–
"O=C(CCCCCCC(=O)N1CCN(CC(=O)Nc2cccc(F)c2)CC1)NO [Example 36, 8-{4-[2-(3-Fluorophenyl-2-ylamino)-2-oxoethyl]piperazin-1-yl}-N-hydroxy-8-oxo octanamide]",39.67,27 µM,62 µM,> 100 µM,40 µM,82 µM,> 100 µM,98.2,72.99,52 µM,> 100 µM,> 100 µM,–,–,–,–,–,–,–,0.95 µM
"CCOc1ccc2nc(NC(=O)CN3CCN(C(=O)CCCCCCC(=O)N(O)C(C)=O)CC3)sc2c1 [Example 37, 8-{4-[2-(6-Ethoxy-1,3-benzothiazol-2-ylamino)-2-oxoethyl]piperazin-1-yl}-N-acetyl-N-hydroxy-8-oxooctanamide]",17.00,4 µM,45 µM,95 µM,7 µM,44 µM,> 100 µM,55.57,94.70,40 µM,74 µM,> 100 µM,–,–,–,–,–,–,–,–
CC(=O)ON(C(C)=O)C(=O)CCCCCCC(=O)N1CCN(CC(=O)Nc2nc3ccc(C)cc3s2)CC1 [Example 38],>100,0.4 µM,30 µM,> 100 µM,25 µM,88 µM,> 100 µM,37.83,84.23,40 µM,> 100 µM,> 100 µM,–,–,–,–,–,–,–,–
"CC(=O)N(O)C(=O)CCCCCCC(=O)N1CCN(CC(=O)Nc2nc3ccccc3s2)CC1 [Example 39, 8-{4-[2-(1,3-Benzothiazol-2-ylamino)-2-oxoethyl]piperazin-1-yl}-N-acetyl-N-hydroxy-8-oxo octanamide]",24.7,22 µM,52 µM,78 µM,8 µM,57 µM,98 µM,81.4,96.6,44 µM,48 µM,> 100 µM,–,–,–,–,–,–,–,0.55 µM
"Cc1cccc2sc(NC(=O)CN3CCN(C(=O)CCCCCCC(=O)NOCc4ccccc4)CC3)nc12 [Example 40, 8-{4-[2-(4-Methyl-1,3-benzothiazol-2-ylamino)-2-oxoethyl]piperazin-1-yl}-N-hydroxybenzyl-8-oxo octanamide]",9.5,0.1 µM,0.5 µM,> 100 µM,4.5 µM,32 µM,> 100 µM,–,4.1,24 µM,85 µM,> 100 µM,–,–,–,–,–,–,–,–
CC(=O)N(OCc1ccccc1)C(=O)CCCCCCC(=O)N1CCN(CC(=O)Nc2nc3c(C)cccc3s2)CC1 [Example 41],10.2,0.1 µM,6.2 µM,> 100 µM,4.5 µM,53 µM,> 100 µM,0.6,–,26 µM,100 µM,> 100 µM,–,–,–,–,–,–,–,–

# — patent US20070088043A1, “Novel HDAC inhibitors” (ORCHID RESEARCH LABORATORIES LIMITED., priority 2005, published 2007)
